From ChEMBL document CHEMBL1201862, “PubChem BioAssay data set” (2004)
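Values below derive from 48-hour exposures of cells grown in 96-well plates, with endpoints linearly interpolated between the two concentrations bracketing the appropriate inhibition level. Here, GI50 denotes the concentration required for 50% inhibition of growth.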 Activity calls are given as the source filed them. Rule as the data show it: active = GI50 up to about 1.1 µM and inactive = higher. Where a SMILES comes first, the peptide text is derived from it. The star is where a group is joined. CH2Cl = ClC*

Legend:
Assay in all cases: DTP human tumour cell line panel, 48 h
CAKI-1 = system: CAKI-1
UACC-257 = system: UACC-257
PC-3 = system: PC-3
CCRF-CEM = system: CCRF-CEM
MDA-MB-435 = system: MDA-MB-435
MOLT-4 = system: MOLT-4
MCF7 = system: MCF7
M14 = system: M14
NCI-H460 = system: NCI-H460
TK-10 = system: TK-10
OVCAR-8 = system: OVCAR-8
SN12C = system: SN12C
SF-295 = system: SF-295
NCI-H522 = system: NCI-H522
COLO 205 = system: COLO 205
HOP-62 = system: HOP-62
KM12 = system: KM12
EKVX = system: EKVX
786-0 = system: 786-0
DMS-114 = system: DMS-114
BT-549 = system: BT-549
OVCAR-4 = system: OVCAR-4
DLD-1 = system: DLD-1
SK-MEL-28 = system: SK-MEL-28
OVCAR-3 = system: OVCAR-3
LOX IMVI = system: LOX IMVI
HOP-18 = system: HOP-18
IGROV-1 = system: IGROV-1
HCC 2998 = system: HCC 2998
A498 = system: A498
SNB-78 = system: SNB-78
SF-539 = system: SF-539
K562 = system: K562
RXF 393 = system: RXF 393
HOP-92 = system: HOP-92
SW-620 = system: SW-620
RPMI-8226 = system: RPMI-8226
SNB-75 = system: SNB-75
MDA-MB-231 = system: MDA-MB-231
Hs-578T = system: Hs-578T
SNB-19 = system: SNB-19
U-251 = system: U-251
DU-145 = system: DU-145
UACC-62 = system: UACC-62
NCI-H23 = system: NCI-H23
UO-31 = system: UO-31
MDA-N = system: MDA-N
A549 = system: A549
SF-268 = system: SF-268
SK-MEL-2 = system: SK-MEL-2
SK-OV-3 = system: SK-OV-3
SR = system: SR
HCT-116 = system: HCT-116
OVCAR-5 = system: OVCAR-5
ACHN = system: ACHN
HL-60 = system: HL-60
NCI-H226 = system: NCI-H226
T47D = system: T47D
HCT-15 = system: HCT-15
NCI/ADR-RES = system: NCI/ADR-RES
HT-29 = system: HT-29
KM-20L2 = system: KM-20L2
LXFL 529 = system: LXFL 529
SK-MEL-5 = system: SK-MEL-5
Malme-3M = system: Malme-3M

In the case of `CCN(CC)CCNc1ccc2nnn3c4ccc(O)cc4c(=O)c1c23`, the GI50 (CAKI-1) is reported as 0.69 µM (active), the GI50 (UACC-257) is reported as 12.2 µM (inactive) and the GI50 (PC-3) is reported as 3.09 µM (inactive). For the same molecule, the GI50 (CCRF-CEM) was 0.586 µM (active), the GI50 (MDA-MB-435) was 3.56 µM (inactive) and the GI50 (MOLT-4) was 0.0407 µM (active). For the same molecule, the GI50 (MCF7) was 2.7 µM (inactive), the GI50 (M14) was 6.65 µM (inactive) and the GI50 (NCI-H460) was 0.0314 µM (active). For the same molecule, the GI50 (TK-10) was 5.56 µM (inactive), the GI50 (OVCAR-8) was 1.49 µM (inactive) and the GI50 (SN12C) was 1.64 µM (inactive). For the same molecule, the GI50 (SF-295) was 2.35 µM (inactive), the GI50 (NCI-H522) was 6.82 µM (inactive) and the GI50 (COLO 205) was 1.84 µM (inactive). The GI50 (HOP-62) was 1.76 µM (inactive), the GI50 (KM12) was 1.01 µM (active) and the GI50 (EKVX) was 6.98 µM (inactive). For the same molecule, the GI50 (786-0) was 1.24 µM (inactive), the GI50 (DMS-114) was 7.29 µM (inactive) and the GI50 (BT-549) was 12.7 µM (inactive). The GI50 (OVCAR-4) was 2.64 µM (inactive), the GI50 (DLD-1) was 2.09 µM (inactive) and the GI50 (SK-MEL-28) was 11.4 µM (inactive). The GI50 (OVCAR-3) was 8.02 µM (inactive), the GI50 (LOX IMVI) was 1.21 µM (inactive) and the GI50 (HOP-18) was 20.5 µM (inactive). For the same molecule, the GI50 (IGROV-1) was 4.01 µM (inactive), the GI50 (HCC 2998) was 1.52 µM (inactive) and the GI50 (A498) was 8.83 µM (inactive). The GI50 (SNB-78) was 5.89 µM (inactive), the GI50 (SF-539) was 1.71 µM (inactive) and the GI50 (K562) was 1.62 µM (inactive). The GI50 (RXF 393) was 0.603 µM (active), the GI50 (HOP-92) was 4.35 µM (inactive) and the GI50 (SW-620) was 0.583 µM (active). The GI50 (RPMI-8226) was 2 µM (inactive), the GI50 (SNB-75) was 2.07 µM (inactive) and the GI50 (MDA-MB-231) was 0.0361 µM (active). The GI50 (Hs-578T) was 10.7 µM (inactive), the GI50 (SNB-19) was 5.52 µM (inactive) and the GI50 (U-251) was 2.86 µM (inactive). The GI50 (DU-145) was 14.3 µM (inactive), the GI50 (UACC-62) was 8.39 µM (inactive) and the GI50 (NCI-H23) was 5.73 µM (inactive). The GI50 (UO-31) was 0.608 µM (active), the GI50 (MDA-N) was 4.09 µM (inactive) and the GI50 (A549) was 0.161 µM (active). For the same molecule, the GI50 (SF-268) was 6.49 µM (inactive), the GI50 (SK-MEL-2) was 11.3 µM (inactive) and the GI50 (SK-OV-3) was 8.22 µM (inactive). For the same molecule, the GI50 (SR) was 0.06 µM (active), the GI50 (HCT-116) was 0.935 µM (active) and the GI50 (OVCAR-5) was 8.02 µM (inactive). For the same molecule, the GI50 (ACHN) was 0.745 µM (active), the GI50 (HL-60) was 2.05 µM (inactive) and the GI50 (NCI-H226) was 3.35 µM (inactive). For the same molecule, the GI50 (T47D) was 18.5 µM (inactive), the GI50 (HCT-15) was 1.83 µM and the GI50 (NCI/ADR-RES) was 1.47 µM (inactive). For the same molecule, the GI50 (HT-29) was 3.33 µM (inactive), the GI50 (KM-20L2) was 4.37 µM (inactive) and the GI50 (LXFL 529) was 6.58 µM (inactive). For the same molecule, the GI50 (SK-MEL-5) was 1.64 µM (inactive) and the GI50 (Malme-3M) was 4.93 µM (inactive).
`CC(=O)NC(CC(C)C)C(=O)NC(Cc1ccccc1)C(=O)CCl` (stereo not drawn) (Ac-Leu-Phe-CH2Cl; configuration not given here) was tested, and the GI50 (CAKI-1) was 17.4 µM (inactive), the GI50 (UACC-257) was 7.73 µM (inactive) and the GI50 (PC-3) was 14 µM (inactive). The GI50 (CCRF-CEM) was 1.32 µM (inactive), the GI50 (MDA-MB-435) was 12.3 µM (inactive) and the GI50 (MOLT-4) was 1.84 µM (inactive). For the same molecule, the GI50 (MCF7) was 5.04 µM (inactive), the GI50 (M14) was 6.89 µM (inactive) and the GI50 (NCI-H460) was 20.8 µM (inactive). The GI50 (TK-10) was 10.4 µM (inactive), the GI50 (OVCAR-8) was 4.69 µM (inactive) and the GI50 (SN12C) was 13.4 µM (inactive). For the same molecule, the GI50 (SF-295) was 18.8 µM (inactive), the GI50 (NCI-H522) was 2.51 µM (inactive) and the GI50 (COLO 205) was 5.43 µM (inactive). The GI50 (HOP-62) was 18.3 µM (inactive), the GI50 (KM12) was 18.7 µM (inactive) and the GI50 (EKVX) was 21.1 µM (inactive). The GI50 (786-0) was 4 µM (inactive), the GI50 (BT-549) was 14.9 µM (inactive) and the GI50 (OVCAR-4) was 18.3 µM (inactive). For the same molecule, the GI50 (SK-MEL-28) was 10.6 µM (inactive), the GI50 (OVCAR-3) was 13.2 µM (inactive) and the GI50 (LOX IMVI) was 2.67 µM (inactive). For the same molecule, the GI50 (IGROV-1) was 16.1 µM (inactive), the GI50 (HCC 2998) was 14.9 µM (inactive) and the GI50 (A498) was 18.8 µM (inactive). The GI50 (SF-539) was 18.1 µM (inactive), the GI50 (K562) was 1.63 µM (inactive) and the GI50 (RXF 393) was 1.96 µM (inactive). For the same molecule, the GI50 (HOP-92) was 5.78 µM (inactive), the GI50 (SW-620) was 2.67 µM (inactive) and the GI50 (RPMI-8226) was 2.69 µM (inactive). For the same molecule, the GI50 (SNB-75) was 14.1 µM (inactive), the GI50 (MDA-MB-231) was 12.1 µM (inactive) and the GI50 (Hs-578T) was 17.3 µM (inactive). The GI50 (SNB-19) was 20 µM (inactive), the GI50 (U-251) was 16.6 µM (inactive) and the GI50 (DU-145) was 12.1 µM (inactive). The GI50 (UACC-62) was 11.7 µM (inactive), the GI50 (NCI-H23) was 13.1 µM (inactive) and the GI50 (UO-31) was 14.6 µM (inactive). The GI50 (MDA-N) was 9.68 µM (inactive), the GI50 (A549) was 20.7 µM (inactive) and the GI50 (SF-268) was 17.9 µM (inactive). For the same molecule, the GI50 (SK-MEL-2) was 10.3 µM (inactive), the GI50 (SK-OV-3) was 18.1 µM (inactive) and the GI50 (SR) was 2.55 µM (inactive). The GI50 (HCT-116) was 5.22 µM (inactive), the GI50 (OVCAR-5) was 17.5 µM (inactive) and the GI50 (ACHN) was 11.1 µM (inactive). The GI50 (HL-60) was 2.21 µM (inactive), the GI50 (NCI-H226) was 21.6 µM (inactive) and the GI50 (T47D) was 7.82 µM (inactive). The GI50 (HCT-15) was 3.16 µM, the GI50 (NCI/ADR-RES) was 10.9 µM (inactive) and the GI50 (HT-29) was 8.38 µM (inactive). For the same molecule, the GI50 (SK-MEL-5) was 8.02 µM (inactive) and the GI50 (Malme-3M) was 5.05 µM (inactive).
